In patent US20230310309A1, “INJECTABLE DEPOT COMPOSITIONS FOR THE DELIVERY OF ANTIVIRAL AGENTS” (Merck Sharp & Dohme LLC, priority 2020, published 2023):
In brackets after ≈: the same amount, converted by molar mass.

Experiment: solubility of islatravir in PBS
Assay type: physicochemical
Details: phosphate buffered saline (PBS), aqueous buffer, 37° C.

With `C#C[C@]1(CO)O[C@@H](n2cnc3c(N)nc(F)nc32)C[C@@H]1O` [islatravir, 4′-ethynyl-2-fluoro-2′-deoxyadenosine] as the molecule, how does the solubility read?
The solubility was 1350 µg/mL (≈ 4.6 mM).
